Like-named read-outs stand apart in the source and are kept apart here.
Assays:
LdGSK-3s [1] = target: T1, LdGSK-3s (Leishmania donovani, UniProt A6N857); assay: Inhibition of recombinant LdGSK-3s with Kinase Glo; type: biochemical; conditions: for IC50: recombinant LdGSK-3s, Kinase Glo
Procedure: (§1) Extraction, purification, and evaluation of compounds against recombinant LdGSK-3s was carried out as described. For that, a recombinant LdGSK-3s with a His-tag was obtained as inclusion bodies, that were further solubilized, and purified by chromatography first on a Ni^2+ column an in a second step on a DEAE (diethylaminoethyl) ionic exchange column. Samples were made in duplicate, and assays were repeated at least three times. IC50 (inhibitory concentration that decreases enzymatic activity by 50%) was calculated using the statistical module of SigmaPlot v11.0 software. Evaluation of compounds against hGSK-3β was performed using human recombinant GSK-3β purchased from Millipore as described previously. Compounds were prepared as a 10 mM stock solution in DMSO.

[2] = tested on: L. infantum promastigotes; assay: Leishmanicidal activity on promastigotes (MTT reduction), Table 2 and Table S1; type: cell-based, Leishmania infantum
Procedure: (§2) Both activities were assessed by inhibition of MTT (3-(4,5-dimethylthiazol-2-yl)-2,5-diphenyltetrazolium bromide) reduction, as described in [34]. Samples were made in triplicate and assays were repeated at least twice. DMSO content in the medium was adjusted to 0.25% v/v (final concentration), regardless of the final concentration of the drug, and for the control, the untreated parasites. ICx (inhibitory concentration that inhibits parasite growth or enzymatic activity by x%) was calculated using the statistical module of SigmaPlot v11.0 software.
In a step ahead, the leishmanicidal activity of the compounds on L. pifanoi axenic amastigotes and L. infantum promastigotes was evaluated. Axenic Leishmania amastigotes afford the appraisal of the leishmanicidal activity without the constrains imposed on the access of the compounds to intracellular amastigotes within the parasitophorous vacuole, as well as to preclude the interference of the compounds via host–parasite interface in the final activity. For that, the axenic line of L. pifanoi amastigotes belonging to the mexicana complex was chosen, as in this species the infectivity, antigenicity, and metabolic identity between axenic and intracellular amastigotes have been consistently validated.

[3] = tested on: L. pifanoi axenic amastigotes; assay: Leishmanicidal activity on axenic amastigotes (MTT reduction); type: cell-based, Leishmania pifanoi
hGSK-3β = target: T2, hGSK-3β (Homo sapiens, UniProt P49841); assay: Inhibition of human recombinant GSK-3β; type: biochemical; conditions: read-out: percentage of inhibition of hGSK-3β
T2 construct: purchased Millipore
T2 sequence (P49841 whole entry): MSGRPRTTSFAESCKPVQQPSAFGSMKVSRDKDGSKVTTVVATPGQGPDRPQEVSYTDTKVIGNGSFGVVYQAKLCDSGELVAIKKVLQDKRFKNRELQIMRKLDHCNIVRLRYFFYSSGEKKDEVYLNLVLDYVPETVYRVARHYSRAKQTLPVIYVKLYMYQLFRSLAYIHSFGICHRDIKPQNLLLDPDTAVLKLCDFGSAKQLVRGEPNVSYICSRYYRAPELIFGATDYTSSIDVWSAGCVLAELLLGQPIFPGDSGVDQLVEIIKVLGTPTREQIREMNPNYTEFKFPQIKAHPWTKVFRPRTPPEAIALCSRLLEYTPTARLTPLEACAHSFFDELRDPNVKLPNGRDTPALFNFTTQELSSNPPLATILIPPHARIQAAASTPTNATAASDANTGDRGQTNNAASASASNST
Procedure: as §1

[4] = tested on: mouse peritoneal macrophages (MPM); assay: Cytotoxicity on mouse peritoneal macrophages (MTT reduction); type: cell-based; conditions: for Selectivity Index (SI): IC50 MPM/IC50 axenic amastigotes; for IC50: mouse peritoneal macrophages, MTT reduction
Procedure: Leishmania parasites were collected at late exponential growth phase by centrifugation at 1610× g at 4 °C. Elicited mouse peritoneal macrophages (MPM) were obtained from 8-week-old Balb/c mice through i.p. injection with 1 mL of 10% thioglycolate medium 72 h before extraction. Macrophages were obtained by peritoneal washing (10 mL PBS, 4 °C).
as §2

[5] = tested on: L. donovani promastigotes; assay: Mitochondrial membrane depolarization (Rhodamine 123 accumulation); type: cell-based, Leishmania donovani; conditions: 4 h; for decrease of Rh123 fluorescence: 2 μM (IC80)
[6] = tested on: L. donovani promastigotes; assay: Sub G0/G1 population (propidium iodide flow cytometry); type: cell-based, Leishmania donovani; conditions: 72 h
Procedure: L. donovani promastigotes (2 × 10^6 cells/mL) in RPMI-HIFCS were incubated with each compound in 24-well plates for 72 h at 26 °C by duplicate. Next, compounds were removed by washing with HBSS-Glc (15,700× g, 4 min, 4 °C) and cells were resuspended in […] of HBSS-Glc, fixed and permeabilized by addition of 200 μL 70% cold EtOH and incubated overnight at 4 °C. Ethanol was removed by centrifugation and cellular pellets washed with HBSS-Glc. Finally, cells were resuspended in 500 μL HBSS-Glc with 20 μg/mL propidium iodide (PI) and 3 mg/mL Ribonuclease A, and incubated in darkness at r. t. for 30 min. PI fluorescence was measured in a Coulter XL EPICS flow cytometer (Beckman Coulter, Nyon, Switzerland) (λEXC = 488 nm, λEM = 620 nm).
Each assay was repeated at least twice. Untreated cells were used as control for a standard cell cycle histogram, and Miltefosine (hexadecylphosphocholine) (15 μM) was used as control for an apoptosis-inducing respiratory inhibitor [51].
Parasites were incubated with the corresponding drug for 72 h, followed by EtOH permeabilization, incubated with 3 mg/mL Ribonuclease A and stained with 20 μg/mL of propidium iodide (PI) before cytofluorometric analysis. (λEXC = 488 nm, λEM = 620 nm). The percentage of subG0/G1 population (enclosed within green bars) stands for degraded chromatin, associated with the apoptotic-like process. Miltefosine (hexadecylphosphocholine, HePc) at 15 μM was added as a control for induction of apoptosis.

LdGSK-3s [7] = target: T1, LdGSK-3s; assay: Mechanism of inhibition of LdGSK-3s (kinetics versus ATP, Eadie–Scatchard plot); type: biochemical; conditions: ATP 1 to 10 μM, inhibitor 2.5 and 5 μM, GS2 25 μM
Procedure: Briefly, kinetic experiments were carried out at four different concentrations of ATP (10, 5, 2.5, and 1 µM), in the absence or presence of the inhibitors, at either 2.5 or 5 µM, while the phospho-glycogen synthase peptide-2 (GS2) substrate was kept constant at 25 µM. The data were processed using Microsoft Excel software and results presented as Eadie–Scatchard plots (v vs. v/[ATP]).

[8] = tested on: intracellular L. pifanoi amastigotes; assay: Parasite load of macrophages infected with mCherry-L. pifanoi amastigotes; type: cell-based, Leishmania pifanoi
[9] = tested on: L. donovani promastigotes; assay: Leishmanicidal activity on promastigotes (MTT reduction), Table 1; type: cell-based; conditions: Leishmania donovani

T1 sequence (A6N857 entry or part of it): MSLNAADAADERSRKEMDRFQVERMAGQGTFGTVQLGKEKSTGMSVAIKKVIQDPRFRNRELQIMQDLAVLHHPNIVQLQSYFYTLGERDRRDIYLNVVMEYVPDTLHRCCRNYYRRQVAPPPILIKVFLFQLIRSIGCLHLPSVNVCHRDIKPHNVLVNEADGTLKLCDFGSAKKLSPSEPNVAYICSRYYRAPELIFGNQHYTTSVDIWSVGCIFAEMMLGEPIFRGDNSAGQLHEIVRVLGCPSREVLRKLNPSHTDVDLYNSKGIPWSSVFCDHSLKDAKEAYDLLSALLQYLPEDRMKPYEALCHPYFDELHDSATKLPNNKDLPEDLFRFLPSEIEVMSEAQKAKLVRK

Molecule	IC50 (LdGSK-3s [1])	IC50 ([2]; Leishmania infantum)	IC50 ([3]; Leishmania pifanoi)	Selectivity Index (SI) [4]	IC50 ([4]; Peritoneal macrophage)	melting point	further results
O=C1C(Cl)=C(NCc2ccccc2)C(=O)c2ccccc21	> 10 µM	> 25 µM	> 25 µM				
CCOC(=O)NC1=C(Cl)C(=O)c2ccccc2C1=O [Compound 1, Ethyl-(3-chloro-1,4-naphthoquinone-2-yl)carbamate]	3.7 ± 0.3 µM	1.54 ± 0.01 µM	0.15 ± 0.4 µM	20.6	3.1 ± 0.1 µM	147 to 149 °C	inhibition at 10 µM (hGSK-3β): 30%; decrease of Rh123 fluorescence [5]: 33.0%; percentage of subG0/G1 population ([6]; 2 μM (IC80)): 54.0 ± 4.2%; mechanism of inhibition of LdGSK-3s (LdGSK-3s [7]): ATP competitive inhibitors
CC(C)OC(=O)NC1=C(Cl)C(=O)c2ccccc2C1=O [Compound 2, Isopropyl-(3-chloro-1,4-naphthoquinone-2-yl)carbamate]	2.5 ± 0.2 µM	1.47 ± 0.02 µM	0.4 ± 0.2 µM		4.51 ± 0.3 µM		inhibition at 10 µM (hGSK-3β): 25%; decrease in parasite load ([8]; 2 μM): 76.3%; decrease of Rh123 fluorescence [5]: 26.4%; percentage of subG0/G1 population ([6]; 2 μM (IC80)): 59.6 ± 1.1%; mechanism of inhibition of LdGSK-3s (LdGSK-3s [7]): ATP competitive inhibitors
O=C(NC1=C(Cl)C(=O)c2ccccc2C1=O)OCc1ccccc1 [Compound 3, Benzyl-(3-chloro-1,4-naphthoquinone-2-yl)carbamate]	2.8 ± 0.1 µM	4.9 ± 0.2 µM	4.7 ± 0.8 µM		9.8 ± 0.2 µM		inhibition at 10 µM (hGSK-3β): 19%
COc1ccc(COC(=O)NC2=C(Cl)C(=O)c3ccccc3C2=O)cc1 [Compound 4, 4-Methoxybenzyl-(3-chloro-1,4-naphthoquinone-2-yl)carbamate]	4.1 ± 0.1 µM	2.9 ± 0.2 µM	3.7 ± 1.1 µM	2.0	7.4 ± 0.8 µM	137 to 147 °C	
COc1cc(COC(=O)NC2=C(Cl)C(=O)c3ccccc3C2=O)cc(OC)c1OC [Compound 5, 3,4,5-Trimethoxybenzyl-(3-chloro-1,4-naphthoquinone-2-yl)carbamate]	4.5 ± 0.6 µM	3.8 ± 1.9 µM	3.6 ± 0.6 µM		8.1 ± 1 µM		
CCCNC1=C(Cl)C(=O)c2ccccc2C1=O [Compound 6, 2-Chloro-3-(propylamino)-1,4-naphthoquinone]	> 10 µM	19.1 ± 1.2 µM	> 25 µM				
CCCCCNC1=C(Cl)C(=O)c2ccccc2C1=O [Compound 7, 2-Chloro-3-(pentylamino)-1,4-naphthoquinone]	> 10 µM	16.9 ± 0.4 µM	> 25 µM				
CC(C)(C)NC1=C(Cl)C(=O)c2ccccc2C1=O [Compound 8, 2-(tert-Butylamino)-3-chloro-1,4-naphthoquinone]	> 10 µM	19.8 ± 3.6 µM	17.8 ± 1.1 µM	1.0	17 ± 0.3 µM		
O=C1C(Cl)=C(NC2CCCCC2)C(=O)c2ccccc21 [Compound 9, 2-Chloro-3-(cyclohexylamino)-1,4-naphthoquinone]	> 10 µM	> 25 µM	> 25 µM			122 to 123 °C	
COc1cc(CNC2=C(Cl)C(=O)c3ccccc3C2=O)cc(OC)c1OC [Compound 10, 2-Chloro-3-((3,4,5-trimethoxybenzyl)amino)-1,4-naphthoquinone]	> 10 µM	> 50 µM	> 50 µM			161 to 163 °C	
O=C1C(Cl)=C(NCc2ccc(Cl)cc2)C(=O)c2ccccc21 [Compound 11, 2-Chloro-3-((4-chlorobenzyl)amino)-1,4-naphthoquinone]	> 10 µM	> 25 µM	> 25 µM				
O=C1C(Cl)=C(Nc2ccc(Cl)cc2)C(=O)c2ccccc21 [Compound 12, 2-Chloro-3-((4-chlorophenyl)amino)-1,4-naphthoquinone]	> 10 µM	> 50 µM	> 50 µM				
CC(C)(C)NC(=O)NC1=C(Cl)C(=O)c2ccccc2C1=O [Compound 14, 1-(tert-Butyl)-3-(3-chloro-1,4-naphthoquinone-2-yl)urea]	> 10 µM	1.4 ± 0.4 µM	2.1 ± 0.6 µM	0.6	1.3 ± 0.3 µM	195 to 196 °C	
COC(=O)NC1=CC(=O)c2ccccc2C1=O [Compound 16, Methyl-(1,4-naphthoquinone-2-yl)carbamate]	> 10 µM	4.1 ± 0.8 µM	1.7 ± 0.2 µM	2.2	3.8 ± 0.3 µM	201 to 202 °C	
CCOC(=O)NC1=CC(=O)c2ccccc2C1=O [Compound 17, Ethyl-(1,4-naphthoquinone-2-yl)carbamate]	> 10 µM	4.5 ± 0.7 µM	1.7 ± 0.1 µM	2.5	4.2 ± 0.2 µM	162 to 163 °C	
CCCCCCCCCCCCCCCCOP(=O)([O-])OCC[N+](C)(C)C [HePc, hexadecylphosphocholine, reference compound]							percentage of subG0/G1 population ([6]; 15 μM, control for induction of apoptosis): 36.8 ± 1.1%
O=C1Nc2ccc(S(=O)(=O)O)cc2C1=C1Nc2ccccc2C1=NO [Indirubin-3′-monoxime-5-sulphonic acid, reference compound]	2.4 µM						
O=C1C=C(O)C(=O)c2c(O)c(Cl)c(Cl)c(O)c21 [MBC-10]	~10 µM	10.5 ± 1.2 µM	11.2 ± 2.5 µM				inhibition at 10 µM (LdGSK-3s [1]; at 10 μM): 45.7%; IC50 [9]: 10.5 ± 1.2 µM
COC(=O)NC1=C(Cl)C(=O)c2ccccc2C1=O [MBC-132]	2.5 ± 0.1 µM	1.51 ± 0.02 µM	0.51 ± 0.01 µM	5.1	2.6 µM		inhibition at 10 µM (hGSK-3β): 19%; IC50 [9]: 1.51 ± 0.02 µM; decrease in parasite load ([8]; 1 μM): 39.1%; decrease in Rh123 accumulation ([5]; 3 μM (IC80)): ~70%; percentage of subG0/G1 population ([6]; 3 μM (IC80)): 63.2 ± 0.3%
N-(1,4-Naphthoquinone-2-yl) phenylacetamide [Compound 20]	> 10 µM						IC50 [2]: 7.1 ± 2.1 µM; IC50 [3]: 3.2 ± 0.1 µM; IC50 [4]: 7.5 ± 0.6 µM
N-(1,4-Naphthoquinone-2-yl)acetamide [Compound 18]	> 10 µM						IC50 [2]: 4.5 ± 0.5 µM; IC50 [3]: 1.2 ± 0.1 µM; IC50 [4]: 4 ± 0.2 µM
N-(1,4-Naphthoquinone-2-yl)propionamide [Compound 19]	> 10 µM						IC50 [2]: 5.9 ± 1.8 µM; IC50 [3]: 1.8 ± 0.3 µM; IC50 [4]: 4.3 ± 0.3 µM
